From US20250312469A1 (CANGET BIOTEKPHARMA, priority 2024, published 2025)
Like-named read-outs stand apart in the source and are kept apart here. Marks after values point to notes of the source that are not given here.

[1] = female dogs, Group 4, 4/4 mg/kg/dose, Day 15
[2] = female dogs, Group 4, 4/4 mg/kg/dose, Day −4
[3] = female dogs, Group 4, 4/4 mg/kg/dose, Day −4 (pre-dose)
[4] = male dogs, Group 4, 4/4 mg/kg/dose, Day 15
[5] = male dogs, Group 4, 4/4 mg/kg/dose, Day −4

## CCC1(O)C(=O)OCc2c1cc1n(c2=O)Cc2cc3cc4c(cc3nc2-1)OCO4 (centres unmarked) [FL118]
Day 15 vs controls
  RET count percentage, max decrease, male: 30.65%
  leukocyte (WBC) counts, max decrease, male: 14.33%
  neutrophils counts (#NEUT), max decrease, male: 18.67%
  reticulocyte (RET) count absolute, max decrease, male: 33.4%
All treatment groups
  clinical signs: abnormal stool
Female dogs, Group 2, 2.5/[…], Day 15
  Cl (chloride), % Diff versus vehicle Group 1: 0%
Female dogs, Group 2, 2.5/[…], Day −4 (pre-dose)
  Cl (chloride), % Diff versus vehicle Group 1: 0%
Female dogs, Group 3, 3.3/[…], Day 15
  Cl (chloride), % Diff versus vehicle Group 1: −1%
Female dogs, Group 3, 3.3/[…], Day −4 (pre-dose)
  Cl (chloride), % Diff versus vehicle Group 1: −1%
[1]
  #EOS (eosinophils, absolute) % Diff vs Group 1: 6.45%
  #LYMP (lymphocytes, absolute) % Diff vs Group 1: −12.61%
  #NEUT % Diff: 32.40%
  #RET % Diff: 61.4%
  #RET Mean: 60.5 10^9/L
  % BASO (basophils, percent) % Diff vs Group 1: −46.7%
  % BASO, basophils, percent, Mean: 0.3%
  % EOS (eosinophils, percent) % Diff vs Group 1: −5.6%
  % EOS, eosinophils, percent, Mean: 2.2%
  % LYMP (lymphocytes, percent) % Diff vs Group 1: −21.4%
  % LYMP, lymphocytes, percent, Mean: 27.8%
  % MONO (monocytes, percent) % Diff vs Group 1: −18.3%
  % MONO, monocytes, percent, Mean: 5.5%
  % NEUT % Diff: 17.0%
  % NEUT Mean: 63.9%
  % RET % Diff: 47.72%
  ALB (albumin), % Diff versus vehicle Group 1: −1.6%
  ALP (alkaline phosphatase), % Diff versus vehicle Group 1: −19%
  ALP, alkaline phosphatase, Mean: 110 U/L
  ALT (alanine aminotransferase), % Diff versus vehicle Group 1: 24%
  ALT, alanine aminotransferase, Mean: 36 U/L
  AST (aspartate aminotransferase), % Diff versus vehicle Group 1: −7%
  AST, aspartate aminotransferase, Mean: 29 U/L
  BIL-T, total bilirubin, Mean: 1.60 µmol/L
  CK (creatine kinase), % Diff versus vehicle Group 1: −32%
  CK, creatine kinase, Mean: 200 U/L
  CRE (creatinine), % Diff versus vehicle Group 1: 12%
  CRE, creatinine, Mean: 54 µmol/L
  Ca, calcium, Mean: 2.53 mmol/L
  Cl (chloride), % Diff versus vehicle Group 1: 1%
  GGT (gamma-glutamyltransferase), % Diff versus vehicle Group 1: 0%
  GGT (gamma-glutamyltransferase), Mean: 3 U/L
  HCT % Diff: 9.2%
  HCT Mean: 43.8%
  HGB % Diff: 9.5%
  HGB Mean: 14.8 g/dL
  K (potassium), % Diff versus vehicle Group 1: −8.3%
  MCH Mean: 23.6 pg
  MCHC % Diff: −0.1%
  MCHC Mean: 33.9 g/dL
  MCV % Diff: −1.6%
  MCV Mean: 69.6 fL
  MPV (mean platelet volume) % Diff vs Group 1: −6.3%
  MPV, mean platelet volume, Mean: 12.3 fL
  P (inorganic phosphorus), % Diff versus vehicle Group 1: −11.74%
  PLT (platelet count) % Diff vs Group 1: −12%
  RBC % Diff: 11.06%
  RDW % Diff: −2.9%
  RDW Mean: 12.5%
  TCHO (total cholesterol), % Diff versus vehicle Group 1: −6.71%
  TCHO, total cholesterol, Mean: 3.52 mmol/L
  TG (triglyceride), % Diff versus vehicle Group 1: −27.70%
  TP (total protein), % Diff versus vehicle Group 1: 3.5%
  TP, total protein, Mean: 57.5 g/L
  UREA (urea), % Diff versus vehicle Group 1: −3.71%
  WBC % Diff: 12.58%
  sGLU (glucose), % Diff versus vehicle Group 1: 7.41%
  sGLU, glucose, Mean: 4.59 mmol/L
Female dogs, Group 4, 4/4 mg/kg/dose, Day 15, * p ≤ 0.05
  TG, triglyceride, Mean: 0.36* mmol/L
[2]
  #BASO (basophils, absolute) % Diff vs Group 1: 0.00%
  #EOS (eosinophils, absolute) % Diff vs Group 1: 18.46%
  #LYMP (lymphocytes, absolute) % Diff vs Group 1: −9.70%
  #MONO (monocytes, absolute) % Diff vs Group 1: 6.36%
  #NEUT % Diff: 45.57%
  #RET % Diff: −2.5%
  % BASO (basophils, percent) % Diff vs Group 1: −25.0%
  % BASO, basophils, percent, Mean: 0.2%
  % EOS (eosinophils, percent) % Diff vs Group 1: 4.5%
  % EOS, eosinophils, percent, Mean: 2.3%
  % LYMP (lymphocytes, percent) % Diff vs Group 1: −25.5%
  % LYMP, lymphocytes, percent, Mean: 24.4%
  % MONO (monocytes, percent) % Diff vs Group 1: −14.4%
  % MONO, monocytes, percent, Mean: 6.9%
  % NEUT % Diff: 17.0%
  % RET Mean: 0.71%
  HCT % Diff: 5.4%
  HCT Mean: 44.9%
  HGB % Diff: 7.3%
  HGB Mean: 15.1 g/dL
  MCH Mean: 23.4 pg
  MCHC % Diff: 1.8%
  MCHC Mean: 35.7 g/dL
  MCV % Diff: −1.8%
  MPV, mean platelet volume, Mean: 11.1 fL
  PLT (platelet count) % Diff vs Group 1: −10%
  RDW Mean: 13.1%
  WBC % Diff: 23.46%
[3]
  ALB (albumin), % Diff versus vehicle Group 1: 1.8%
  ALP (alkaline phosphatase), % Diff versus vehicle Group 1: −19%
  ALP, alkaline phosphatase, Mean: 129 U/L
  ALT (alanine aminotransferase), % Diff versus vehicle Group 1: −8%
  ALT, alanine aminotransferase, Mean: 25 U/L
  AST (aspartate aminotransferase), % Diff versus vehicle Group 1: −11%
  AST, aspartate aminotransferase, Mean: 31 U/L
  BIL-T (total bilirubin), % Diff versus vehicle Group 1: 23.23%
  CK (creatine kinase), % Diff versus vehicle Group 1: −39%
  CK, creatine kinase, Mean: 233 U/L
  CRE (creatinine), % Diff versus vehicle Group 1: 11%
  CRE, creatinine, Mean: 52 µmol/L
  Ca (calcium), % Diff versus vehicle Group 1: −2.36%
  Cl (chloride), % Diff versus vehicle Group 1: 2%
  GGT (gamma-glutamyltransferase), % Diff versus vehicle Group 1: 0%
  GGT (gamma-glutamyltransferase), Mean: 3 U/L
  GLB, globulin, Mean: 27.3 g/L
  K, potassium, Mean: 4.3 mmol/L
  Na (sodium), % Diff versus vehicle Group 1: 1%
  Na, sodium, Mean: 147 mmol/L
  P (inorganic phosphorus), % Diff versus vehicle Group 1: −6.41%
  P, inorganic phosphorus, Mean: 1.61 mmol/L
  TCHO (total cholesterol), % Diff versus vehicle Group 1: −6.71%
  TCHO, total cholesterol, Mean: 3.66 mmol/L
  TG (triglyceride), % Diff versus vehicle Group 1: −11.26%
  TG, triglyceride, Mean: 0.45 mmol/L
  TP, total protein, Mean: 57.4 g/L
  UREA, urea, Mean: 4.17 mmol/L
  sGLU (glucose), % Diff versus vehicle Group 1: −0.07%
For males
  NOAEL: 4.4 mg/kg/dose
Male dogs, Group 2, 2.5/[…], Day 15
  Cl (chloride) % Diff vs Group 1: 3%
Male dogs, Group 2, 2.5/[…], Day −4
  Cl (chloride) % Diff vs Group 1: 2%
Male dogs, Group 3, 3.3/[…], Day 15
  Cl (chloride) % Diff vs Group 1: 2%
Male dogs, Group 3, 3.3/[…], Day −4
  Cl (chloride) % Diff vs Group 1: −1%
[4]
  ALP (alkaline phosphatase) % Diff vs Group 1: −31%
  ALT (alanine aminotransferase) % Diff vs Group 1: 4%
  ALT, alanine aminotransferase, Mean: 29 L⁻¹
  AST (aspartate aminotransferase) % Diff vs Group 1: −31%
  BIL-T (total bilirubin (diasys)) % Diff vs Group 1: 31.07%
  BIL-T (total bilirubin (diasys)) Mean: 1.48 L⁻¹
  CK (creatine kinase) % Diff vs Group 1: −10%
  CK, creatine kinase, Mean: 281 U/L
  GGT (gamma-glutamyltransferase), Mean: 3 U/L
  GLB, globulin, Mean: 28.3* g/L
  K (potassium) % Diff vs Group 1: −10.3%
  K, potassium, Mean: 4.4 mmol/L
  Na (sodium) % Diff vs Group 1: 2%
  Na, sodium, Mean: 148 mmol/L
  P, inorganic phosphorus, Mean: 1.63 L⁻¹
  TCHO, total cholesterol, Mean: 4.77 mmol/L
  TG (triglyceride) % Diff vs Group 1: −15.79%
  UREA (urea) % Diff vs Group 1: 2.96%
  sGLU (glucose) % Diff vs Group 1: −6.55%
  sGLU, glucose, Mean: 4.47 L⁻¹
[5]
  ALB, albumin, Mean: 11.0 g/L
  ALP (alkaline phosphatase) % Diff vs Group 1: −5%
  ALP, alkaline phosphatase, Mean: 141 L⁻¹
  ALT (alanine aminotransferase) % Diff vs Group 1: 3%
  ALT, alanine aminotransferase, Mean: 25 L⁻¹
  AST (aspartate aminotransferase) % Diff vs Group 1: −3%
  AST, aspartate aminotransferase, Mean: 32 L⁻¹
  BIL-T (total bilirubin (diasys)) Mean: 1.67 L⁻¹
  CK (creatine kinase) % Diff vs Group 1: 15%
  CRE (creatinine) % Diff vs Group 1: 8%
  Cl (chloride) % Diff vs Group 1: 1%
  K (potassium) % Diff vs Group 1: −2.8%
  K, potassium, Mean: 4.7 mmol/L
  Na (sodium) % Diff vs Group 1: 0%
  Na, sodium, Mean: 146 mmol/L
  P, inorganic phosphorus, Mean: 1.52 L⁻¹
  TCHO (total cholesterol) % Diff vs Group 1: −2.15%
  TCHO, total cholesterol, Mean: 4.85 mmol/L
  TG (triglyceride) % Diff vs Group 1: −8.33%
  TG, triglyceride, Mean: 0.40 mmol/L
  UREA, urea, Mean: 4.25 L⁻¹
  sGLU, glucose, Mean: 4.11 L⁻¹
Vs control group
  Total Bilirubin (BIL-T), max increase, females: 16.14%
  Total Bilirubin (BIL-T), max increase, males: 47.34%
  Triglyceride (TG), max decrease, females: 37.84%
  Triglyceride (TG), max decrease, males: 22.56%
